BigSolDB 2.1

O=C(O)c1cc(=O)[nH]c(=O)[nH]1
solubility (mole fraction)
Conditions	278.15 K	283.15 K	288.15 K	293.15 K	298.15 K	303.15 K	308.15 K	313.15 K	318.15 K	323.15 K
in DMF	0.00242	0.00305	0.00382	0.00473	0.00578	0.0071	0.00861	0.0108	0.0132	0.0157
in DMSO	–	–	–	0.0326	0.0394	0.0472	0.0563	0.0665	0.0781	0.0911
in THF	7.26e-05	8.12e-05	9.02e-05	0.0001	0.000112	0.000125	0.000138	0.000151	0.000167	0.000185
in acetone	9.3e-06	1.06e-05	1.22e-05	1.37e-05	1.56e-05	1.76e-05	1.95e-05	2.21e-05	2.49e-05	2.78e-05
in ethanol	1.71e-05	1.9e-05	2.09e-05	2.32e-05	2.57e-05	2.86e-05	3.17e-05	3.48e-05	3.88e-05	4.32e-05
in ethyl acetate	1.1e-06	1.2e-06	1.2e-06	1.3e-06	1.4e-06	1.5e-06	1.6e-06	1.8e-06	1.9e-06	2e-06
in isopropanol	1e-05	1.32e-05	1.72e-05	2.12e-05	2.67e-05	3.36e-05	4.18e-05	5.2e-05	6.37e-05	7.71e-05
in methanol	4.44e-05	5.24e-05	6.13e-05	7.19e-05	8.42e-05	9.82e-05	0.000115	0.000135	0.000157	0.000184
in methyl acetate	8.8e-06	9.4e-06	1.03e-05	1.15e-05	1.21e-05	1.31e-05	1.41e-05	1.53e-05	1.64e-05	1.76e-05
in n-butanol	1.47e-05	1.72e-05	2.12e-05	2.53e-05	2.97e-05	3.5e-05	4.06e-05	4.88e-05	5.67e-05	6.63e-05
in n-propanol	2.24e-05	2.57e-05	3e-05	3.42e-05	3.97e-05	4.61e-05	5.31e-05	6.09e-05	7.17e-05	8.18e-05
in water	4.57e-05	5.22e-05	5.97e-05	6.68e-05	7.56e-05	8.5e-05	9.5e-05	0.000107	0.000121	0.000136
